What was measured:
fibronectin = assay: Tamoxifen-driven conditional FN knockout during PAN02 exosome education, liver immunofluorescence; format: in vivo, mouse; settings: tamoxifen treatment of Rosa-CreER+; Fn fl/fl mice during PAN02 exosome education
From the text: To generate inducible FN knockout mice, we crossed B6; 129-Gt(ROSA)26SOR^tm1(cre/ERT2)Tyj/J mice expressing tamoxifen-sensitive Cre under the Gt(Rosa)26 or promoter (Jackson Laboratories, stock 008463) with mice homozygous for a floxed allele of fibronectin (Fn^fl/fl, generously provided by R. Fässler, Max Planck Institute of Biochemistry) (Sakai et al., “Plasma Fibronectin Supports Neuronal Survival and Reduces Brain Injury Following Transient Focal Cerebral Ischemia but is Not Essential for Skin-Wound Healing and Hemostasis,” Nat. Med. 7:324-330 (2001), which is hereby incorporated by reference in its entirety). […] For verification of Fn deletion, liver FN expression was evaluated by immunofluorescence.
For histological analysis, tissues were dissected and fixed in a mix of 2% PFA and 20% sucrose solution overnight, and then embedded in Tissue-tek O.C.T. (Electron Microscopy Sciences). […] GFP and mCherry′ cells were detected by their intrinsic signal. Fluorescent images were obtained using a Nikon confocal microscope (Eclipse TE2000U) and analyzed using Nikon software (EZ-C1 3.6). FN and αSMA expression were quantified using ImageJ Software (NIH) by determining the ratio between the areas of FN and DAPI staining, expressed in arbitrary units (a.u.).

TGF-beta type I receptor = biological target: T1, TGF-beta type I receptor (Mus musculus, UniProt Q64729); assay: Systemic TGFβ receptor inhibition during PAN02 exosome education, liver immunofluorescence; format: in vivo; settings: A83-01 i.p. during the three-week course of PAN02 exosome education
T1 construct: from tissue; host or cells: living C57Bl/6 mice; liver analysed by immunofluorescence
T1 sequence (Q64729 30-503): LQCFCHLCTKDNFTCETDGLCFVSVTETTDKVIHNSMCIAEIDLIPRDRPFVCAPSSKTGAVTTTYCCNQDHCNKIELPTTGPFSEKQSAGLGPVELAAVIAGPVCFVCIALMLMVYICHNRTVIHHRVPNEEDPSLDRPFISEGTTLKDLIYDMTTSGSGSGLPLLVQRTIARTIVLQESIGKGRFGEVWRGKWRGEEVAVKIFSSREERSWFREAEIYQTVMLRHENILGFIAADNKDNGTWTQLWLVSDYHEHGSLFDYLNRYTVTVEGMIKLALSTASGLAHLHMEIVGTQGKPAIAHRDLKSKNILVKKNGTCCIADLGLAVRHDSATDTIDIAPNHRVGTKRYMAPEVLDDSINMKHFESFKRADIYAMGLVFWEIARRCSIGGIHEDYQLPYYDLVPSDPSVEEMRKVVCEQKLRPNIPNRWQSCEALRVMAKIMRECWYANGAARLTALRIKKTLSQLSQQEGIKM
Experimental: Five micrograms of total exosomal protein was injected into the retro-orbital venous sinus in a total volume of 100 μl PBS. For education experiments, mice received 5 μg of exosomes every other day, 3 times a week. For exosome-tracking experiments, purified exosomes were fluorescently labelled using PKH67 membrane dye (Sigma). Labelled exosomes were washed in 20 ml of PBS, collected by ultracentrifugation, and resuspended in PBS. In experiments involving evaluation of exosome incorporation, labelled exosomes were injected 24 h before tissue collection and analysis for exosome^+ cells was conducted by flow cytometry or immunofluorescence. For exosome-tracking experiments, 5 μg of non-tumour exosomes from normal pancreas were used as controls. Unlabeled exosomes were used as controls of signal specificity. For education experiments, retro-orbital injection of PBS or normal pancreata exosomes was used in control groups.
For systemic TGFβ receptor inhibition, mice were treated with intraperitoneal injections of A83-01 (Santa Cruz). Mice were administered 10 μg of A83-01 (diluted in 100 μl of dimethylsulphoxide) per gram of mouse weight for a total of 9 doses, every other day, for the three weeks of PAN02 exosome education.
For histological analysis, tissues were dissected and fixed in a mix of 2% PFA and 20% sucrose solution overnight, and then embedded in Tissue-tek O.C.T. (Electron Microscopy Sciences). Blocks were frozen in a dry ice and ethanol bath. […] GFP and mCherry′ cells were detected by their intrinsic signal. Fluorescent images were obtained using a Nikon confocal microscope (Eclipse TE2000U) and analyzed using Nikon software (EZ-C1 3.6). FN and αSMA expression were quantified using ImageJ Software (NIH) by determining the ratio between the areas of FN and DAPI staining, expressed in arbitrary units (a.u.).

Compound: CC/C(=C(\c1ccccc1)c1ccc(OCCN(C)C)cc1)c1ccccc1 [tamoxifen]
- FN deposition in the liver (fibronectin): reduced to control
- αSMA expression in the liver (fibronectin): not affected

Compound: Cc1cccc(-c2nn(C(=S)Nc3ccccc3)cc2-c2ccnc3ccccc23)n1 [A83-01, 3-(6-Methyl-2-pyridinyl)-N-phenyl-4-(4-quinolinyl)-1H-pyrazole-1-carbothioamide]
- F4/80+ macrophage migration to the liver (TGF-beta type I receptor): reduced
- FN deposition in the liver (TGF-beta type I receptor): reduced
- frequency of αSMA+ hStCs in the liver (TGF-beta type I receptor): reduced

Reference: US11397182B2, “Methods for prognosing and preventing metastatic liver disease” (CORNELL UNIVERSITY, priority 2014, dated 2022)
